Laboratory results as given in ChEMBL document CHEMBL1145395, “De novo design of selective antibiotic peptides by incorporation of unnatural amino acids” (J Med Chem, 2007).
In brackets after ≈: the same amount, converted by molar mass. Activity calls are given as the source filed them. The rule behind the calls is not given here. Starred links: 1 amine or outer side, 2 acyl side, 3 side chain; linkers in the order of their positions; H or OH if unused. Non-standard residues stand in square brackets, D forms with d. Residues, ends and D or L forms follow the SMILES beside them. ξ: configuration not given here. *: point of attachment. Biotin = O=C1N[C@H]2[C@H](CS[C@H]2CCCCC(=O)*)N1; Pro(3ξ,4ξ-(CH2)4) = O=C(O)[C@H]1NCC2CCCCC21; Oic = O=C(O)[C@@H]1C[C@@H]2CCCC[C@@H]2N1; Phe(4-F) = N[C@@H](Cc1ccc(F)cc1)C(=O)O; Ethylenediamine = C(CN[*:2])N[*:1]; Tic = O=C(O)[C@@H]1Cc2ccccc2CN1; Dap = NC[C@H](N)C(=O)O; NH(CH2)3NH2 = NCCCN*; βAla = NCCC(=O)O

Tests used:
Mycobacterium = experiment: Antibacterial activity against Mycobacterium ranae ATCC 110; assay type: functional
Salmonella typhimurium = experiment: Antibacterial activity against Salmonella Typhimurium ATCC 13311; assay type: functional, Salmonella enterica subsp. enterica serovar Typhimurium; conditions: for MIC: Salmonella enterica
Bacillus subtilis = experiment: Antibacterial activity against Bacillus subtilis ATCC 43223; assay type: functional
Staphylococcus aureus = experiment: Antibacterial activity against methicillin/gentamicin/tetracycline resistant Staphylococcus aureus ATCC 33592; assay type: functional
[1] = Toxicity to mouse RBC assessed as hemolytic activity at 100 uM; assay type: cell-based, Erythrocyte; conditions: red blood cells, read-out: Activity

| Compound | MIC (Mycobacterium) [µM] | MIC (Salmonella typhimurium) [µM] | MIC (Bacillus subtilis) [µM] | MIC (Staphylococcus aureus) [µM] | hemolysis at 100 µM [1] [%] | Activity (Salmonella typhimurium; Salmonella enterica subsp. enterica serovar Typhimurium) | Activity (Staphylococcus aureus) |
| --- | --- | --- | --- | --- | --- | --- | --- |
| CC(=O)NCC(=O)N[C@@H](Cc1ccccc1)C(=O)N1Cc2ccccc2C[C@H]1C(=O)N1[C@H](C(=O)NCC(=O)N[C@@H](CCCCN)C(=O)N2Cc3ccccc3C[C@H]2C(=O)N2[C@H](C(=O)NCC(=O)N[C@@H](Cc3ccccc3)C(=O)N3Cc4ccccc4C[C@H]3C(=O)N3[C@H](C(=O)NCC(=O)N[C@@H](CCCCN)C(=O)N4Cc5ccccc5C[C@H]4C(=O)N[C@@H](CCCCN)C(=O)N[C@@H](CCCCN)C(=O)N[C@@H](CCCCN)C(=O)N[C@@H](CCCCN)C(=O)NCCCN)C[C@@H]4CCCC[C@@H]43)C[C@@H]3CCCC[C@@H]32)C[C@@H]2CCCC[C@@H]21 (Ac-GF[Tic][Oic]GK[Tic][Oic]GF[Tic][Oic]GK[Tic]KKKK-{NH(CH2)3NH2}) | 10 (≈ 25 µg/mL) | 30 (≈ 74.9 µg/mL) | 3 (≈ 7.49 µg/mL) | 10 (≈ 25 µg/mL) | – | – | – |
| CC(=O)NCC(=O)N[C@@H](Cc1ccccc1)C(=O)N[C@@H](Cc1ccccc1)C(=O)N1CC2CCCCC2[C@H]1C(=O)NCC(=O)N[C@@H](CCCCN)C(=O)N[C@@H](Cc1ccccc1)C(=O)N1CC2CCCCC2[C@H]1C(=O)NCC(=O)N[C@@H](Cc1ccccc1)C(=O)N[C@@H](Cc1ccccc1)C(=O)N1CC2CCCCC2[C@H]1C(=O)NCC(=O)N[C@@H](CCCCN)C(=O)N[C@@H](Cc1ccccc1)C(=O)N[C@@H](CCCCN)C(=O)N[C@@H](CCCCN)C(=O)N[C@@H](CCCCN)C(=O)N[C@@H](CCCCN)C(N)=O (stereo partly drawn) (Ac-GFF[Pro(3ξ,4ξ-(CH2)4)]GKF[Pro(3ξ,4ξ-(CH2)4)]GFF[Pro(3ξ,4ξ-(CH2)4)]GKFKKKK-NH2) | 10 (≈ 23.9 µg/mL) | 10 (≈ 23.9 µg/mL) | 3 (≈ 7.18 µg/mL) | 10 (≈ 23.9 µg/mL) | – | – | – |
| CC(C)C[C@H](NC(=O)CNC(=O)[C@H](CCCCN)NC(=O)CN)C(=O)N1Cc2ccccc2C[C@H]1C(=O)N1CC2CCCCC2[C@H]1C(=O)N[C@@H](Cc1ccccc1)C(=O)N[C@@H](CCCCN)C(=O)N1Cc2ccccc2C[C@H]1C(=O)N1CC2CCCCC2[C@H]1C(=O)N[C@@H](CCCCN)C(=O)N[C@@H](Cc1ccccc1)C(=O)N1Cc2ccccc2C[C@H]1C(=O)N1CC2CCCCC2[C@H]1C(=O)N[C@@H](Cc1ccccc1)C(=O)N[C@@H](CCCCN)C(=O)N1Cc2ccccc2C[C@H]1C(=O)N1CC2CCCCC2[C@H]1C(=O)N[C@@H](CCCCN)C(=O)N[C@@H](Cc1ccccc1)C(=O)N1Cc2ccccc2C[C@H]1C(=O)N1CC2CCCCC2[C@H]1C(=O)N[C@@H](Cc1ccccc1)C(=O)N[C@@H](CCCCN)C(=O)N1Cc2ccccc2C[C@H]1C(=O)N1CC2CCCCC2[C@H]1C(=O)N[C@@H](Cc1ccccc1)C(=O)N[C@@H](CCCCN)C(=O)N[C@@H](CCCNC(=N)N)C(N)=O (stereo partly drawn) (H-GKGL[Tic][Pro(3ξ,4ξ-(CH2)4)]FK[Tic][Pro(3ξ,4ξ-(CH2)4)]KF[Tic][Pro(3ξ,4ξ-(CH2)4)]FK[Tic][Pro(3ξ,4ξ-(CH2)4)]KF[Tic][Pro(3ξ,4ξ-(CH2)4)]FK[Tic][Pro(3ξ,4ξ-(CH2)4)]FKR-NH2) | – | 100 (≈ 404 µg/mL) | 3 (≈ 12.1 µg/mL) | 30 (≈ 121 µg/mL) | – | – | – |
| CC(=O)NCC(=O)N[C@@H](Cc1ccccc1)C(=O)N1Cc2ccccc2C[C@H]1C(=O)N1[C@H](C(=O)NCC(=O)N[C@@H](CCCCN)C(=O)N2Cc3ccccc3C[C@H]2C(=O)N2[C@H](C(=O)NCC(=O)N[C@@H](Cc3ccccc3)C(=O)N3Cc4ccccc4C[C@H]3C(=O)N3[C@H](C(=O)NCC(=O)N[C@@H](CCCCN)C(=O)N4Cc5ccccc5C[C@H]4C(=O)N[C@@H](CCCCN)C(=O)N[C@@H](CCCCN)C(=O)N[C@@H](CCCCN)C(=O)N[C@@H](CCCCN)C(=O)NCCN)C[C@@H]4CCCC[C@@H]43)C[C@@H]3CCCC[C@@H]32)C[C@@H]2CCCC[C@@H]21 (Ac-GF[Tic][Oic]GK[Tic][Oic]GF[Tic][Oic]GK[Tic]KKKK-Ethylenediamine) | 10 (≈ 24.8 µg/mL) | 10 (≈ 24.8 µg/mL) | 1 (≈ 2.48 µg/mL) | 3 (≈ 7.45 µg/mL) | – | – | – |
| NCCCC[C@H](NC(=O)[C@H](CCCCN)NC(=O)[C@H](CCCCN)NC(=O)[C@H](CCCCN)NC(=O)[C@@H]1Cc2ccccc2CN1C(=O)[C@H](CCCCN)NC(=O)CNC(=O)[C@@H]1C[C@@H]2CCCC[C@@H]2N1C(=O)[C@@H]1Cc2ccccc2CN1C(=O)[C@H](Cc1ccccc1)NC(=O)CNC(=O)[C@@H]1C[C@@H]2CCCC[C@@H]2N1C(=O)[C@@H]1Cc2ccccc2CN1C(=O)[C@H](CCCCN)NC(=O)CNC(=O)[C@@H]1C[C@@H]2CCCC[C@@H]2N1C(=O)[C@@H]1Cc2ccccc2CN1C(=O)[C@H](Cc1ccccc1)NC(=O)CNC(=O)CCCC[C@@H]1SC[C@@H]2NC(=O)N[C@@H]21)C(N)=O (Biotin-GF[Tic][Oic]GK[Tic][Oic]GF[Tic][Oic]GK[Tic]KKKK-NH2) | 10 (≈ 26.3 µg/mL) | 30 (≈ 78.8 µg/mL) | 1 (≈ 2.63 µg/mL) | 3 (≈ 7.88 µg/mL) | – | – | – |
| CC(=O)NCCC(=O)N[C@@H](Cc1ccc(F)cc1)C(=O)N1Cc2ccccc2C[C@H]1C(=O)N1CC2CCCCC2[C@H]1C(=O)NCCC(=O)N[C@@H](CN)C(=O)N1Cc2ccccc2C[C@H]1C(=O)N1CC2CCCCC2[C@H]1C(=O)NCCC(=O)N[C@@H](Cc1ccc(F)cc1)C(=O)N1Cc2ccccc2C[C@H]1C(=O)N1CC2CCCCC2[C@H]1C(=O)NCCC(=O)N[C@@H](CN)C(=O)N1Cc2ccccc2C[C@H]1C(=O)N[C@@H](CN)C(=O)N[C@@H](CN)C(=O)N[C@@H](CN)C(=O)N[C@@H](CN)C(N)=O (stereo partly drawn) (Ac-[βAla][Phe(4-F)][Tic][Pro(3ξ,4ξ-(CH2)4)][βAla][Dap][Tic][Pro(3ξ,4ξ-(CH2)4)][βAla][Phe(4-F)][Tic][Pro(3ξ,4ξ-(CH2)4)][βAla][Dap][Tic][Dap][Dap][Dap][Dap]-NH2) | 100 (≈ 228 µg/mL) | 3 (≈ 6.84 µg/mL) | 0.3 (≈ 0.684 µg/mL) | 30 (≈ 68.4 µg/mL) | – | – | – |
| CC(C)C[C@H](NC(=O)CNC(=O)[C@H](CCCCN)NC(=O)CN)C(=O)N1Cc2ccccc2C[C@H]1C(=O)N1[C@H](C(=O)NCC(=O)N[C@@H](CCCNC(=N)N)C(=O)N2Cc3ccccc3C[C@H]2C(=O)N2[C@H](C(=O)NCC(=O)N[C@@H](Cc3ccccc3)C(=O)N3Cc4ccccc4C[C@H]3C(=O)N3[C@H](C(=O)NCC(=O)N[C@@H](CCCNC(=N)N)C(=O)N4Cc5ccccc5C[C@H]4C(=O)N4[C@H](C(=O)NCC(=O)N[C@@H](Cc5ccccc5)C(=O)N5Cc6ccccc6C[C@H]5C(=O)N5[C@H](C(=O)NCC(=O)N[C@@H](CCCNC(=N)N)C(=O)N6Cc7ccccc7C[C@H]6C(=O)N6[C@H](C(=O)NCC(=O)N[C@@H](CCCCN)C(=O)N[C@@H](CCCNC(=N)N)C(N)=O)C[C@@H]7CCCC[C@@H]76)C[C@@H]6CCCC[C@@H]65)C[C@@H]5CCCC[C@@H]54)C[C@@H]4CCCC[C@@H]43)C[C@@H]3CCCC[C@@H]32)C[C@@H]2CCCC[C@@H]21 (H-GKGL[Tic][Oic]GR[Tic][Oic]GF[Tic][Oic]GR[Tic][Oic]GF[Tic][Oic]GR[Tic][Oic]GKR-NH2) | – | 100 (≈ 362 µg/mL) | 1 (≈ 3.62 µg/mL) | – | – | – | – |
| CC(=O)NCC(=O)N[C@@H](Cc1ccc(F)cc1)C(=O)N1Cc2ccccc2C[C@H]1C(=O)N1CC2CCCCC2[C@H]1C(=O)NCC(=O)N[C@@H](CCCCN)C(=O)N1Cc2ccccc2C[C@H]1C(=O)N1CC2CCCCC2[C@H]1C(=O)NCC(=O)N[C@@H](Cc1ccc(F)cc1)C(=O)N1Cc2ccccc2C[C@H]1C(=O)N1CC2CCCCC2[C@H]1C(=O)NCC(=O)N[C@@H](CCCCN)C(=O)N1Cc2ccccc2C[C@H]1C(=O)N[C@@H](CCCCN)C(=O)N[C@@H](CCCCN)C(=O)N[C@@H](CCCCN)C(=O)N[C@@H](CCCCN)C(N)=O (stereo partly drawn) (Ac-G[Phe(4-F)][Tic][Pro(3ξ,4ξ-(CH2)4)]GK[Tic][Pro(3ξ,4ξ-(CH2)4)]G[Phe(4-F)][Tic][Pro(3ξ,4ξ-(CH2)4)]GK[Tic]KKKK-NH2) | 3 (≈ 7.43 µg/mL) | 30 (≈ 74.3 µg/mL) | 0.3 (≈ 0.743 µg/mL) | 10 (≈ 24.8 µg/mL) | – | – | – |
| CSCC[C@H](NC(=O)[C@H](CC(C)C)NC(=O)[C@H](CCC(=O)O)NC(=O)[C@@H]1C2CCCCC2CN1C(=O)[C@@H]1Cc2ccccc2CN1C(=O)[C@H](CCCCN)NC(=O)CNC(=O)[C@@H]1C2CCCCC2CN1C(=O)[C@@H]1Cc2ccccc2CN1C(=O)[C@H](CC(C)C)NC(=O)CNC(=O)[C@@H]1C2CCCCC2CN1C(=O)[C@@H]1Cc2ccccc2CN1C(=O)[C@H](CCCCN)NC(=O)CNC(=O)[C@@H]1C2CCCCC2CN1C(=O)[C@@H]1Cc2ccccc2CN1C(=O)[C@H](CC(C)C)NC(=O)CNC(=O)[C@@H]1C2CCCCC2CN1C(=O)[C@@H]1Cc2ccccc2CN1C(=O)[C@H](CO)NC(=O)[C@H](CC(N)=O)NC(=O)[C@H](CCSC)NC(=O)[C@H](CC(C)C)NC(=O)[C@@H](N)CCC(=O)O)C(=O)N[C@@H](CC(N)=O)C(=O)N[C@@H](CO)C(N)=O (stereo partly drawn) (H-ELMNS[Tic][Pro(3ξ,4ξ-(CH2)4)]GL[Tic][Pro(3ξ,4ξ-(CH2)4)]GK[Tic][Pro(3ξ,4ξ-(CH2)4)]GL[Tic][Pro(3ξ,4ξ-(CH2)4)]GK[Tic][Pro(3ξ,4ξ-(CH2)4)]ELMNS-NH2) | – | – | – | – | 3 | inactive | inactive |
| CC(=O)NCC(=O)N[C@@H](Cc1ccccc1)C(=O)N1CC2CCCCC2[C@H]1C(=O)NCC(=O)N[C@@H](CCCCN)C(=O)N1CC2CCCCC2[C@H]1C(=O)NCC(=O)N[C@@H](Cc1ccccc1)C(=O)N1CC2CCCCC2[C@H]1C(=O)NCC(=O)N[C@@H](CCCCN)C(=O)N[C@@H](CCCCN)C(=O)N[C@@H](CCCCN)C(=O)N[C@@H](CCCCN)C(=O)N[C@@H](CCCCN)C(N)=O (stereo partly drawn) (Ac-GF[Pro(3ξ,4ξ-(CH2)4)]GK[Pro(3ξ,4ξ-(CH2)4)]GF[Pro(3ξ,4ξ-(CH2)4)]GKKKKK-NH2) | 100 (≈ 180 µg/mL) | 100 (≈ 180 µg/mL) | 3 (≈ 5.41 µg/mL) | – | – | – | – |
| CC(=O)NCC(=O)N[C@@H](Cc1ccccc1)C(=O)NCC(=O)N1CC2CCCCC2[C@H]1C(=O)NCC(=O)N[C@@H](CCCCN)C(=O)NCC(=O)N1CC2CCCCC2[C@H]1C(=O)NCC(=O)N[C@@H](Cc1ccccc1)C(=O)NCC(=O)N1CC2CCCCC2[C@H]1C(=O)NCC(=O)N[C@@H](CCCCN)C(=O)NCC(=O)N[C@@H](CCCCN)C(=O)N[C@@H](CCCCN)C(=O)N[C@@H](CCCCN)C(=O)N[C@@H](CCCCN)C(N)=O (stereo partly drawn) (Ac-GFG[Pro(3ξ,4ξ-(CH2)4)]GKG[Pro(3ξ,4ξ-(CH2)4)]GFG[Pro(3ξ,4ξ-(CH2)4)]GKGKKKK-NH2) | 100 (≈ 203 µg/mL) | – | 30 (≈ 61 µg/mL) | 3 (≈ 6.1 µg/mL) | – | – | – |
